# Data taken from US8134001B2, “Spiroindolinone derivatives” (Hoffmann-La Roche Inc., priority 2007, dated 2012).
# Target: interaction between p53 and MDM2 proteins (recombinant GST-tagged MDM2 / biotinylated p53 peptide) (Homo sapiens, UniProt Q00987)
# Experiment: HTRF assay of inhibition of the p53-MDM2 interaction
# Assay type: binding
# Settings: 0.2% BSA
# Experimental: The ability of the compounds to inhibit the interaction between p53 and MDM2 proteins was measured by an HTRF (homogeneous time-resolved fluorescence) assay in which recombinant GST-tagged MDM2 binds to a peptide that resembles the MDM2-interacting region of p53 (Lane et al.). Binding of GST-MDM2 protein and p53-peptide (biotinylated on its N-terminal end) is registered by the FRET (fluorescence resonance energy transfer) between Europium (Eu)-labeled anti-GST antibody and streptavidin-conjugated Allophycocyanin (APC).
# Test is performed in black flat-bottom 384-well plates (Costar) in a total volume of 40 uL containing: 90 nM biotinylate peptide, 160 ng/ml GST-MDM2, 20 nM streptavidin-APC (PerkinElmerWallac), 2 nM Eu-labeled anti-GST-antibody (PerkinElmerWallac), 0.2% bovine serum albumin (BSA), 1 mM dithiothreitol (DTT) and 20 mM Tris-borate saline (TBS) buffer as follows: Add 10 uL of GST-MDM2 (640 ng/ml working solution) in reaction buffer to each well. Add 10 uL diluted compounds (1:5 dilution in reaction buffer) to each well, mix by shaking. Add 20 uL biotinylated p53 peptide (180 nM working solution) in reaction buffer to each well and mix on shaker. Incubate at 37° C. for 1 h. Add 20 uL streptavidin-APC and Eu-anti-GST antibody mixture (6 nM Eu-anti-GST and 60 nM streptavidin-APC working solution) in TBS buffer with 0.2% BSA, shake at room temperature for 30 minutes and read using a TRF-capable plate reader at 665 and 615 nm (Victor 5, Perkin ElmerWallac). If not specified, the reagents were purchased from Sigma Chemical Co.
# interaction between p53 and MDM2 proteins (recombinant GST-tagged MDM2 / biotinylated p53 peptide), sequence (Q00987 whole entry): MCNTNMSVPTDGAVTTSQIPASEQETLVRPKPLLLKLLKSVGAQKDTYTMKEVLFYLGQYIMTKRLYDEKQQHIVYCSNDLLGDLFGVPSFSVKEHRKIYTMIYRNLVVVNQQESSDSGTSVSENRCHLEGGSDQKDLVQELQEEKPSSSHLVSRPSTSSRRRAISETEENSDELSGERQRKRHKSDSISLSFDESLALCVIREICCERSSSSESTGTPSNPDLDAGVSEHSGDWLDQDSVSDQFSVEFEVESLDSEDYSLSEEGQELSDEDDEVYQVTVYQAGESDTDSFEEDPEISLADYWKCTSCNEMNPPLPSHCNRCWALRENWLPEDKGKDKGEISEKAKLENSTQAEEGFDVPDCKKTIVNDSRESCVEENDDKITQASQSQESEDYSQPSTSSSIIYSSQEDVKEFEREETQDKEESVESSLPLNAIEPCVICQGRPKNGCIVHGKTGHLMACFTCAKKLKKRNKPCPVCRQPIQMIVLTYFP
row,IC50,Structure (SMILES)
1,0.042 µM,"C#Cc1ccc(OC2CCN(C(=O)N(CC)CC)CC2)c([C@H]2NC(=O)C[C@@H](c3cccc(Cl)c3)[C@]23C(=O)Nc2cc(Cl)ccc23)c1 (racemic) [Example 22b, racemic(2′R,3R,4′S)-6-chloro-4′-(3-chlorophenyl)-2′-[2-(1-diethylcarbamoyl-4-piperidinyloxy)-5-ethynyl-phenyl]spiro[3H-indole-3,3′-piperidine]-2,6′(1H)-dione]"
2,0.034 µM,"CC(=O)N1CCC(Oc2ccc(I)cc2[C@H]2NC(=O)[C@@H](c3cccc(Cl)c3)C[C@]23C(=O)Nc2cc(Cl)ccc23)CC1 [Example 5c, chiral(2′R,3R,4′S)-2′-[2-(1-acetyl-4-piperidinyloxy)-5-iodo-phenyl]-6-chloro-4′-(3-chlorophenyl)spiro[3H-indole-3,3′-piperidine]-2,6′(1H)-dione]"
3,0.131 µM,"O=C1C[C@@H](c2cccc(Cl)c2)[C@]2(C(=O)Nc3cc(Cl)ccc32)[C@@H](c2cc(Br)ccc2Oc2ccc(C(=O)NCCN3CCCC3)cc2)N1 (racemic) [Example 56, racemic(2′R, 3R, 4′S)-2′-{5-bromo-2-[4-(2-pyrrolidin-1-yl-ethylcarbamoyl)-phenoxy]-phenyl}-6-chloro-4′-(3-chlorophenyl)spiro[3H-indole-3,3′-piperidine]-2,6′(1H)-dione]"
4,0.048 µM,"CC(=O)Nc1ccc(Oc2ccc(Cl)cc2[C@H]2NC(=O)C[C@@H](c3cccc(Cl)c3)[C@]23C(=O)Nc2cc(Cl)ccc23)cc1 (racemic) [Example 87, racemic(2′R, 3R, 4′S)-2′-[2-(4-acetylamino-phenoxy)-5-chloro-phenyl]-6-chloro-4′-(3-chlorophenyl)spiro[3H-indole-3,3′-piperidine]-2,6′(1H)-dione]"

row,Structure (SMILES),IC50
1,"C#Cc1ccc(OCC2CCN(C(=O)OC(C)(C)C)CC2)c([C@H]2NC(=O)C[C@@H](c3cccc(Cl)c3)[C@]23C(=O)Nc2cc(Cl)ccc23)c1 (racemic) [Example 2, racemic(2′R,3R,4′S)-2′-[2-(1-(tert-butoxycarbonyl)-4-piperidinylmethoxy)-5-ethynyl-phenyl]-6-chloro-4′-(3-chlorophenyl)spiro[3H-indole-3,3′-piperidine]-2,6′(1H)-dione]",0.205 µM
